Patent US20070231375A1, “Liposome combination and the use thereof” (Taipei Medical University, priority 2006, published 2007)

Columns and labels:
A431 cells = experiment: MTT Assay-2 (A431); format: cell-based; settings: 0.5 μg/ml Doxorubicin, no light
Procedure: A431 or CL1-5 cells (approx. 5000 cells) were seeded in each well of a 96-well plate and incubated in medium. After 24 hr of incubation, Doxorubicin (FD), Liposomal-Doxorubicin (LD) and Liposomal-Doxorubicin-Hematoporphyrin (LDH) was added into each well and drug concentration was set at 0.5 μg/ml Doxorubicin and 0.3 μg/ml Hp, After 2 hr, the cells of experiment group were illuminated for 10, 20, or 30 J/cm^2, and MTT assay was performed 72 hr later.

CL1-0 cells = experiment: MTT Assay-2 (CL1-0); format: cell-based; settings: 0.5 μg/ml Doxorubicin; no light

**Q.** With `COc1cccc2c1C(=O)c1c(O)c3c(c(O)c1C2=O)C[C@@](O)(C(=O)CO)C[C@@H]3O[C@H]1C[C@H](N)[C@H](O)[C@H](C)O1` [FD, Doxorubicin] as the molecule, how does the “toxicity to cell A431 (in words)” value (A431 cells) read?
**A.** has toxicity to cell A431 significantly

**Q.** And the “activity of mitochondia dehydrogenase (of control group)” value (A431 cells; A431, 0.3 μg/ml Hp, MTT 72 hr)?
**A.** about 30%

**Q.** And the “toxicity to cell CL1-0 (in words)” value (CL1-0 cells)?
**A.** has toxicity to cell CL1-0 significantly
